Assay results: US20220227849A1, “INHIBITOR OF SURFACE PROTEIN (SP-D) / SIRPA / SHP2 PATHWAY FOR USE IN THE PREVENTION AND/OR TREATMENT OF SECONDARY INFECTION” (UNIVERSITÉ DE NANTES, priority 2019, published 2022)

B1: HMGB1: danger-associated molecular pattern protein (Elabscience) administered intra-tracheally (protein, UniProt P63158 1-215, looked up)
High mobility group protein B1: MGKGDPKKPRGKMSSYAFFVQTCREEHKKKHPDASVNFSEFSKKCSERWKTMSAKEKGKFEDMAKADKARYEREMKTYIPPKGETKKKFKDPNAPKRPPSAFFLFCSEYRPKIKGEHPGLSIGDVAKKLGEMWNNTAADDKQPYEKKAAKLKEKYEKDIAAYRAKGKPDAAKKGVVKAEKSKKKKEEEDDEEDEEDEEEEEEEEDEDEEEDDDDE

Test system: alveolar macrophages
Assay: In vivo phagocytic assay of alveolar macrophages 7 days after aseptic lung inflammatory response (intratracheal instillation)
Conditions: wild type mice inoculated intratracheally 7 days prior; TNF-α 2.5 μg, HMGB1 10 μg; 2 hours after YFP-E. coli; FIG. 3f
Description: CpG 1668 (10 nM), TNF-α (2.5 μg, Myltenyi Biotec, Paris, France) and HMGB1 (10 μg, Elabscience, Tex., USA) were administrated intra-tracheally under anaesthesia. Mice were kept in a semi-recumbent position for 60 seconds after injection.
Recipient mice were γ-irradiated twice with […] and were reconstituted with 2.5-5×10^6 T cell-depleted bone marrow cells of each relevant donor strain at the indicated ratio. Neomycin (50 mg/ml) was added to the drinking water for the next 4 weeks. Chimeras were used for subsequent experiments 6 to 10 weeks after the reconstitution. Percentage of chimerism was tested during the experiments.
YFP-S. aureus (Strain RN4220 with YFP/erm2 plasmid, kindly gifted by Malone, C. L. et al. 2009 [29]), and YFP-E. coli (strain DH5alpha with p-HG-1 plasmid, kindly gifted by Janssen, W. J. et al 2011 [30]) were grown overnight in Luria broth media with erythromycin 10 μg/mL or 20 μg/mL chloramphenicol, respectively. Fluoresbrite YG carboxylate microspheres (3.64 10^9 beads, […]; Polysciences), YFP-E. coli (OD600=2-3, 75 μL) or YFP-S. aureus (OD600=5-6, 75 μL) were injected i.t. in mice. 2 hours later, the percentages of FITC or YFP^+ macrophages in the lungs were measured by flow cytometry. In vitro phagocytic assay for splenic macrophages

| Molecule | phagocytic function of AM after YFP-E. coli pneumonia |
| --- | --- |
| TNF-α | displayed impaired phagocytic function |
| B1 | but not those of HMGB1 treated mice, displayed impaired phagocytic function |
